≈ marks a conversion by molar mass, not a printed value. Like-named read-outs stand apart in the source and are kept apart here. Values belong to the molecule of their own block, whether it stands above or below them.
Legend:
3T3 cells = assay: Cytotoxicity assay (CCK-8), 3T3; assay type: cell-based, mouse
Description: (§1) The cells were cultured in a medium containing DMEM:FBS:MEM:P/S in a ratio of 88:10:1:1 for Caco-2 (immortalized human colorectal adenocarcinoma) cells, and DMEM:FBS:P/S in a ratio of 89:10:1 for HUVEC (Human umbilical vein endothelial cells), 3T3 (mouse embryonic fibroblasts), and HEK293 (immortalized human embryonic kidney) cell lines. The cell cultures were maintained in 100 mm diameter Petri dishes within a CelMate® CO2 Incubator (Esco Lifesciences Group, Singapore) at 37 °C in an atmosphere containing 5% carbon dioxide and a relative humidity of 95%. The culture medium was refreshed every 24 h.
(§2) To determine cell concentration, 1.0 mL of a trypsin solution containing EDTA, pre-warmed to 37 °C, was added to a Petri dish and incubated for up to 5 min. […] Subsequently, 100 µL of the solution was introduced into the Neubauer chamber XB.K.25 (QUIJING, Shanghai, China), and the concentration (cells/mL) was calculated using the following formula:(1) C=Ncell/Nsquares×[…], where Ncell represents the number of cells counted in the Neubauer chamber field and Nsquares represents the number of squares in the Neubauer chamber used for concentration calculation. […]
(§3) The resulting solutions were analyzed on a microplate spectrophotometer Eon (BioTek, Winooski, VT, USA) at the maximum absorption of the reduced form of CCK-8, measured at 450 nm. […]

HUVEC cells = assay: Cytotoxicity assay (CCK-8), HUVEC; assay type: cell-based, human; settings: 24 h
Description: as §1, §2, §3

[1] = set-up: method as in earlier work; settings: water, room temperature; European Pharmacopoeia 11.5; cited from earlier work
Caco-2 cells = assay: Cytotoxicity assay (CCK-8), Caco-2; assay type: cell-based, human; settings: Caco-2, 24 h
Description: as §1, §2, §3

HEK293 cells = assay: Cytotoxicity assay (CCK-8), HEK293; assay type: cell-based, human; settings: HEK293, 24 h
Description: as §1, §2, §3

[2] = Solubility studies, pharmacopoeial descriptive terms; assay type: physicochemical; settings: in water at room temperature
Description: The analysis was performed in accordance with the pharmacopoeial monograph of the State Pharmacopoeia of the Russian Federation XV, which is equivalent to the terms of the Pharmacopoeia of the Eurasian Economic Union and the European Pharmacopeia 11.5 at ambient conditions.
A measured amount of solvent was added to the suspension of the substance, and the mixture was continuously shaken for 1 min and placed in a thermostat set at a temperature of 24.5–25.5 °C for 15 min. If the substance had not completely dissolved, the shaking process was repeated for another minute, and the solution was kept in the thermostat for another 15 min period at the same temperature.

[3] = set-up: method as in PMID 38139995; settings: unmodified flavonoid; cited from earlier work

Solubility (pharmacopoeial descriptive term) [2]: very slightly soluble
Structure (SMILES): O=C1c2c(O)cc(O)cc2OC(c2ccc(O)c(O)c2)C1O (centres unmarked) [DHQraw, 2,3-dihydro-3,5,7-trihydroxy-2-(3,4-dihydroxyphenyl)-4H-1-benzopyran-4-one]
IC50 (3T3 cells; Mus musculus, NIH3T3, 3T3, 24 h, read-out: IC50): 96 µg/mL (≈ 316 µM) | IC50 (HUVEC cells; Homo sapiens, read-out: IC50): 88 µg/mL (≈ 289 µM) | Solubility (pharmacopoeial descriptive term) [1]: very slightly soluble | IC50 (Caco-2 cells; Homo sapiens, read-out: IC50): 65 µg/mL | IC50 (HEK293 cells; Homo sapiens, read-out: IC50): 39 µg/mL (≈ 128 µM)

Structure (SMILES): NCCCC[C@H](N)C(=O)O [LYSlyo]
IC50 (3T3 cells; 3T3, 24 h): above the maximum concentration | IC50 (HUVEC cells): 826 µg/mL (≈ 5650 µM) | IC50 (Caco-2 cells): 538 µg/mL | IC50 (HEK293 cells): 1490 µg/mL (≈ 10200 µM)

Structure (SMILES): O=c1c(-c2ccc(O)cc2)coc2cc(O)cc(O)c12 [genistein]
Solubility of genistein [3]: 0.05 ± 0.01 µg/mL

From article PMC12736791, “Co-Amorphous Systems Based on Dihydroquercetin and L-Lysine: Synthesis and Evaluation” (Pharmaceutics, 2025)
